Measured values reported in patent publication US10759783B2, “Biaryl inhibitors of Bruton'S tyrosine kinase” (BIOGEN MA INC., priority 2013, dated 2020).

Target: T1, BTK enzyme (Homo sapiens, UniProt Q06187)
T1 construct: purchased Upstate 14-552
Experiment: In vitro BTK kinase assay: BTK-POLYGAT-LS assay
Assay type: biochemical
Details: ATP 10 μM, read-out: IC50 (10uMATP)
Method: The purpose of the BTK in vitro assay is to determine compound potency against BTK through the measurement of IC50. […] For a typical assay, a 24 μL aliquot of a ATP/peptide master mix (final concentration; ATP 10 μM, polyGAT 100 nM) in kinase buffer (10 mM Tris-HCl pH 7.5, 10 mM MgCl2, 200 μM Na3PO4, 5 mM DTT, 0.01% Triton X-100, and 0.2 mg/ml casein) is added to each well. […] The assay is incubated for 30 minutes before being stopped with 28 μL of a 50 mM EDTA solution. […] The plate is covered and incubated for 45 minutes at room temperature.

T1 sequence (Q06187 whole entry): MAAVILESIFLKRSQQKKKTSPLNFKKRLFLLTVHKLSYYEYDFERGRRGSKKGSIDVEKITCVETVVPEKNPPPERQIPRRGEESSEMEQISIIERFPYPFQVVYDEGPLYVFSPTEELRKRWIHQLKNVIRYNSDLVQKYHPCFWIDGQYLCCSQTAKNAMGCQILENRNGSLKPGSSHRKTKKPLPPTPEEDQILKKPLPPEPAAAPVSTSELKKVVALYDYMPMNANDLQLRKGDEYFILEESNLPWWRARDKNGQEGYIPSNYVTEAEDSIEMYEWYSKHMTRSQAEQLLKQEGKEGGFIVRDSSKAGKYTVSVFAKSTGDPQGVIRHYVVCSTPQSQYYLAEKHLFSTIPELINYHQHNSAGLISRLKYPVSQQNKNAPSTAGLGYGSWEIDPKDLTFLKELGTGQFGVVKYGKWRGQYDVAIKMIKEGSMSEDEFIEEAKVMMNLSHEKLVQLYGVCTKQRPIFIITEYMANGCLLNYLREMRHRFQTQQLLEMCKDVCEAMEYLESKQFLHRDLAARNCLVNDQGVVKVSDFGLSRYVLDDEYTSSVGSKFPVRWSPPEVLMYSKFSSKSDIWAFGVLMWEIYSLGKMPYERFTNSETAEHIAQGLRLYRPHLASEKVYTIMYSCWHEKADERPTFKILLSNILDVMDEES

| SMILES | IC50 |
| --- | --- |
| Cc1cc(-c2ccnc(N)n2)ccc1CNC(=O)c1cnn(C)c1 [Example I-80, N-(4-(2-aminopyrimidin-4-yl)-2-methylbenzyl)-1-methyl-1H-pyrazole-4-carboxamide] | 1000 to 10000 nM |
| Cc1cc(-c2ccnc(Nc3ccccn3)n2)ccc1CNC(=O)c1cnc(C(C)(C)C)s1 [Example I-60, 2-(tert-butyl)-N-(2-methyl-4-(2-(pyridin-2-ylamino)pyrimidin-4-yl)benzyl)thiazole-5-carboxamide] | 10 to 99 nM |
| Cc1cc(-c2ccnc(Nc3cnn(C)c3)n2)ccc1CNC(=O)N1CC(OC(C)(C)C)C1 [Example I-152, 3-(tert-butoxy)-N-(2-methyl-4-(2-((1-methyl-1H-pyrazol-4-yl)amino)pyrimidin-4-yl)benzyl)azetidine-1-carboxamide] | < 10 nM |
| Cc1cc(-c2ccnc(Nc3cn(C)nn3)n2)ccc1CNC(=O)c1cnc(C(C)(C)C)s1 [Example I-58, 2-(tert-butyl)-N-(2-methyl-4-(2-((1-methyl-1H-1,2,3-triazol-4-yl)amino)pyrimidin-4-yl)benzyl)thiazole-5-carboxamide] | 10 to 99 nM |
| Cc1cc(-c2ccnc(N)n2)ccc1CNC(=O)c1cn2c(n1)CNCC2 [Example I-74, N-(4-(2-aminopyrimidin-4-yl)-2-methylbenzyl)-5,6,7,8-tetrahydroimidazo[1,2-a]pyrazine-2-carboxamide] | 1000 to 10000 nM |
| Cc1cc(-c2ccnc(Nc3conc3C)n2)ccc1CNC(=O)c1cnc(C(C)(C)C)s1 [Example I-57, 2-(tert-butyl)-N-(2-methyl-4-(2-((3-methylisoxazol-4-yl)amino)pyrimidin-4-yl)benzyl)thiazole-5-carboxamide] | < 10 nM |
| Cc1cc(-c2ccnc(N)n2)ccc1CNC(=O)c1nc2c(s1)CNCC2 [Example I-75, N-(4-(2-aminopyrimidin-4-yl)-2-methylbenzyl)-4,5,6,7-tetrahydrothiazolo[5,4-c]pyridine-2-carboxamide] | 1000 to 10000 nM |
| Cc1cc(-c2ccnc(NC(C)C)n2)ccc1CNC(=O)c1cnc(C(C)(C)C)s1 [Example I-35, 2-(tert-butyl)-N-(4-(2-(isopropylamino)pyrimidin-4-yl)-2-methylbenzyl)thiazole-5-carboxamide] | 1000 to 10000 nM |
| Cc1cc(-c2ccnc(N)n2)ccc1CNC(=O)c1cc2n(n1)CCCNC2 [Example I-72, N-(4-(2-aminopyrimidin-4-yl)-2-methylbenzyl)-5,6,7,8-tetrahydro-4H-pyrazolo[1,5-a][1,4]diazepine-2-carboxamide] | 1000 to 10000 nM |
| Cc1cc(-c2ccnc(NC3CCN(C)CC3)n2)ccc1CNC(=O)c1cnc(C(C)(C)C)s1 [Example I-25, 2-(tert-butyl)-N-(2-methyl-4-(2-((1-methylpiperidin-4-yl)amino)pyrimidin-4-yl)benzyl)thiazole-5-carboxamide] | 1000 to 10000 nM |
| CCNc1nccc(-c2ccc(CNC(=O)c3cnc(C(C)(C)C)s3)c(C)c2)n1 [Example I-34, 2-(tert-butyl)-N-(4-(2-(ethylamino)pyrimidin-4-yl)-2-methylbenzyl)thiazole-5-carboxamide] | 10 to 99 nM |
| Cc1cc(-c2ccnc(N)n2)ccc1CNC(=O)c1ccc2c(c1)CCNC2 [Example I-77, N-(4-(2-aminopyrimidin-4-yl)-2-methylbenzyl)-1,2,3,4-tetrahydroisoquinoline-6-carboxamide] | 1000 to 10000 nM |
| CNc1nccc(-c2ccc(CNC(=O)c3cnc(C(C)(C)C)s3)c(C)c2)n1 [Example I-33, 2-(tert-butyl)-N-(2-methyl-4-(2-(methylamino)pyrimidin-4-yl)benzyl)thiazole-5-carboxamide] | 100 to 999 nM |
| Cc1cc(-c2ccnc(Nc3cnn(C)c3)n2)ccc1CNC(=O)c1cc2c(s1)CCNC2C (stereo not drawn) [Example I-14, 4-methyl-N-(2-methyl-4-(2-((1-methyl-1H-pyrazol-4-yl)amino)pyrimidin-4-yl)benzyl)-4,5,6,7-tetrahydrothieno[3,2-c]pyridine-2-carboxamide] | 10 to 99 nM |
| Cc1cc(-c2ccnc(Nc3cnn(C)c3)n2)ccc1CNC(=O)[C@H]1CC[C@@H](C(F)(F)F)CC1 [Example I-17, cis-N-(2-methyl-4-(2-((1-methyl-1H-pyrazol-4-yl)amino)pyrimidin-4-yl)benzyl)-4-(trifluoromethyl)cyclohexanecarboxamide] | 100 to 999 nM |
| Cc1cc(-c2ccnc(N)n2)ccc1CNC(=O)c1nc2c(s1)CCNCC2 [Example I-73, N-(4-(2-aminopyrimidin-4-yl)-2-methylbenzyl)-5,6,7,8-tetrahydro-4H-thiazolo[4,5-d]azepine-2-carboxamide] | 1000 to 10000 nM |

Continued, values first:

| IC50 | SMILES |
| --- | --- |
| < 10 nM | Cc1cc(-c2cc(Nc3cc4n(n3)CCCN(C(=O)OC(C)(C)C)C4)ncn2)ccc1CNC(=O)c1cnc(C(C)(C)C)s1 [Example I-149, tert-butyl 2-((6-(4-((2-(tert-butyl)thiazole-5-carboxamido)methyl)-3-methylphenyl)pyrimidin-4-yl)amino)-7,8-dihydro-4H-pyrazolo[1,5-a][1,4]diazepine-5(6H)-carboxylate] |
| < 10 nM | Cc1cc(-c2cc(Nc3ccn(CCO)n3)ncn2)ccc1CNC(=O)c1cnc(C(C)(C)C)s1 [Example I-151, 2-(tert-butyl)-N-(4-(6-((1-(2-hydroxyethyl)-1H-pyrazol-3-yl)amino)pyrimidin-4-yl)-2-methylbenzyl)thiazole-5-carboxamide] |
| 10 to 99 nM | Cn1cc(Nc2nccc(-c3ccc4c(c3)CCC4NC(=O)c3cnc(C(C)(C)C)s3)n2)cn1 (stereo not drawn) [Example I-90, 2-(tert-butyl)-N-(5-(2-((1-methyl-1H-pyrazol-4-yl)amino)pyrimidin-4-yl)-2,3-dihydro-1H-inden-1-yl)thiazole-5-carboxamide] |
| 10 to 99 nM | Cc1nc(-c2ccnc(Nc3cnn(C)c3)n2)ccc1CNC(=O)c1cnc(C(C)(C)C)s1 [Example I-103, 2-(tert-butyl)-N-((2-methyl-6-(2-((1-methyl-1H-pyrazol-4-yl)amino)pyrimidin-4-yl)pyridin-3-yl)methyl)thiazole-5-carboxamide] |
| 1000 to 10000 nM | Cc1cc(-c2ccnc(N)n2)ccc1CNC(=O)c1cncs1 [Example I-84, N-(4-(2-aminopyrimidin-4-yl)-2-methylbenzyl)thiazole-5-carboxamide] |
| < 10 nM | Cc1cc(-c2nc(Nc3cnn(C)c3)ncc2C)ccc1CNC(=O)c1cnc(C(C)(C)C)s1 [Example I-112, 2-(tert-butyl)-N-(2-methyl-4-(5-methyl-2-((1-methyl-1H-pyrazol-4-yl)amino)pyrimidin-4-yl)benzyl)thiazole-5-carboxamide] |
| < 10 nM | CC(=O)Nc1cc(-c2ccc(CNC(=O)c3cc4c(s3)CCCC4)c(C)c2)ncn1 [Example I-143, N-(4-(6-acetamidopyrimidin-4-yl)-2-methylbenzyl)-4,5,6,7-tetrahydrobenzo[b]thiophene-2-carboxamide] |
| < 10 nM | Cc1cc(-c2ccnc(Nc3cnn(C)c3)n2)ccc1CNC(=O)c1cc2n(n1)CCCC2 [Example I-159, N-(2-Methyl-4-(2-((1-methyl-1H-pyrazol-4-yl)amino)pyrimidin-4-yl)benzyl)-4,5,6,7-tetrahydropyrazolo[1,5-a]pyridine-2-carboxamide] |
| 1000 to 10000 nM | Cc1cc(-c2ccnc(N)n2)ccc1CNC(=O)C1CC2CNCC2C1 (stereo not drawn) [Example I-81, N-(4-(2-aminopyrimidin-4-yl)-2-methylbenzyl)octahydrocyclopenta[c]pyrrole-5-carboxamide] |
| 10 to 99 nM | CN(Cc1cc(-c2ccnc(N)n2)ccc1CNC(=O)c1cc2c(s1)CCCC2)C(=O)OC(C)(C)C [Example I-144, tert-butyl 5-(2-aminopyrimidin-4-yl)-2-((4,5,6,7-tetrahydrobenzo[b]thiophene-2-carboxamido)methyl)benzyl(methyl)carbamate] |
| 100 to 999 nM | COC(C)c1ncc(C(=O)NCc2ccc(-c3ccnc(N)n3)cc2C)s1 (stereo not drawn) [Example I-87, N-(4-(2-aminopyrimidin-4-yl)-2-methylbenzyl)-2-(1-methoxyethyl)thiazole-5-carboxamide] |
| 10 to 99 nM | Cc1cc(-c2ccnc(N)n2)ccc1CNC(=O)c1cc2c(s1)CCNC2 [Example I-140, N-(4-(2-aminopyrimidin-4-yl)-2-methylbenzyl)-4,5,6,7-tetrahydrothieno[3,2-c]pyridine-2-carboxamide] |
| 10 to 99 nM | Cc1cc(-c2ccnc(Nc3cnn(C)c3)n2)ccc1C(CO)NC(=O)c1cc2c(s1)CCOC2 (stereo not drawn) [Example I-109, N-(2-hydroxy-1-(2-methyl-4-(2-((1-methyl-1H-pyrazol-4-yl)amino)pyrimidin-4-yl)phenyl)ethyl)-6,7-dihydro-4H-thieno[3,2-c]pyran-2-carboxamide] |
| < 10 nM | Nc1nccc(-c2ccc3c(c2)CCCC3NC(=O)c2cc3c(s2)CCCC3)n1 (stereo not drawn) [Example I-137, N-(6-(2-aminopyrimidin-4-yl)-1,2,3,4-tetrahydronaphthalen-1-yl)-4,5,6,7-tetrahydrobenzo[b]thiophene-2-carboxamide] |
| < 10 nM | Cc1cc(-c2cc(Nc3cc4n(n3)CCN(C)C4)ncn2)ccc1CNC(=O)c1cnn(C(C)(C)C)c1 [Example I-150, 1-(tert-butyl)-N-(2-methyl-4-(6-((5-methyl-4,5,6,7-tetrahydropyrazolo[1,5-a]pyrazin-2-yl)amino)pyrimidin-4-yl)benzyl)-1H-pyrazole-4-carboxamide] |
| < 10 nM | Cc1cc(-c2cc(Nc3cc4n(n3)CCCNC4)ncn2)ccc1CNC(=O)c1cnc(C(C)(C)C)s1 [Example I-148, 2-(tert-butyl)-N-(2-methyl-4-(6-((5,6,7,8-tetrahydro-4H-pyrazolo[1,5-a][1,4]diazepin-2-yl)amino)pyrimidin-4-yl)benzyl)thiazole-5-carboxamide] |
| < 10 nM | Cn1cc(Nc2nccc(-c3ccc4c(c3)OCCC4NC(=O)c3cnc(C(C)(C)C)s3)n2)cn1 (stereo not drawn) [Example I-97, 2-(tert-butyl)-N-(7-(2-((1-methyl-1H-pyrazol-4-yl)amino)pyrimidin-4-yl)chroman-4-yl)thiazole-5-carboxamide] |
